Reference: patent US12370143B2, “Compound or salt thereof and lipid particles” (FUJIFILM Corporation, priority 2018, dated 2025)
Read-outs that look alike come from different tables or passages of the source.

Key:
[1] = system: DMS273 cells constantly expressing Luc; test: Target reporter protein (Luc) knockdown in cell, reporter protein assay; type: cell-based; conditions: Homo sapiens, DMS-273
Method: The nucleic acid lipid particles prepared by the same method as that in <Preparation of nucleic acid lipid particles> by using the compounds described in Table 3 were evaluated by reporter assay by the following method.
By using pGL4.50 Luc2 (E1310 Promega), DMS273 cells (human small cell lung cancer) (European Collection of Authenticated Cell Cultures) constantly expressing Luc were prepared. RPMI (Gibco) (10% FBS (Gibco), 1% Penicillin-Streptomycin (Gibco), and 200 μg/mL Hygromycin (Wako)) was used as a culture medium. DMS273 cells (2.0×10^3) constantly expressing luciferase (Luc) were seeded in a 96-well plate and cultured in a 5% CO2 incubator for 24 hours, and then the medium was replaced. Then, 10 μL of each of the dispersion liquids of lipid particles diluted with PBS (Gibco) to yield a concentration of 1 to 1,000 nmol/L was added to the 96-well plate, and the final concentration was adjusted to 0.1 to 100 nmol/L (total amount of liquid: 110 μl). Thereafter, the cells were cultured in a 5% CO2 incubator for 24 hours, the medium was then replaced, and the cells were further cultured for 24 hours.
After the viable cell count was determined, the expression amount of Luc was quantified using a Steady Glo assay kit (Promega), and the knockdown efficiency was calculated according to the following equation. Then, the IC50 concentration at which the expression amount of Luc was knocked down to 50% was calculated.

[2] = Particle size of nucleic acid lipid particles (Luc2-siRNA); type: physicochemical; conditions: compound/DSPC/cholesterol/DMG-PEG2000 50/10/38.5/1.5
Method: By using the dispersion liquid of lipid particles as it was, the particle size of the lipid particles was measured using a zeta potential/particle size measurement system ELS-Z2 (Otsuka Electronics Co., Ltd.).
(§1) The compounds described in Table 2, L-α-distearoylphosphatidylcholine (trade name: COATSOME® MC-8080; NOF corporation), cholesterol (trade name: Choesterol HP; NIPPON FINE CHEMICAL CO., LTD.), and 1,2-dimyristoyl-rac-glycero-3-(methylpolyoxyethylene 2000) (hereinafter, called DMG-PEG2000) (trade name: SUNBRIGHT® GM-020; NOF corporation) were dissolved in ethanol at a molar ratio of 50/10/38.5/1.5 such that the total lipid concentration became 20 mmol/L, thereby obtaining an oil phase.
(§2) An aqueous nucleic acid solution obtained by dissolving 5 mg of Luc2-siRNA having the sequence described in Biomacromolecules (2013) 14, p. 3905 in 1 mL of sterile water was diluted with 10 mmol/L acetate buffer having a pH 4 such that the nucleic acid concentration became 19.7 μmol/L, thereby obtaining a water phase. Then, the water phase and the oil phase were mixed together by a micromixer (see JP5288254B) using a syringe pump such that the volume ratio of water phase:oil phase became 3:1 (final ratio of siRNA/lipid=339 (mol/mol)), and the mixed solution was diluted 2× with PBS, thereby obtaining a dispersion liquid of nucleic acid lipid particles. The dispersion liquid was dialyzed (Slide-A-Lyzer G2, MWCO: 10 kD, Thermo Fisher Scientific) using a phosphate buffered saline such that ethanol was removed, thereby obtaining nucleic acid lipid particles.
The particle size of the nucleic acid lipid particles was measured by the same method as that in <Preparation of lipid particles>.

[3] = Encapsulation rate of siRNA in nucleic acid lipid particles (Luc2-siRNA); type: physicochemical; conditions: compound/DSPC/cholesterol/DMG-PEG2000 50/10/38.5/1.5
Method: as §1, §2
A 3 mol/L aqueous sodium acetate solution (30 μL) and 9 μL of glycogen were added to 60 μL of the lipid particles retaining nucleic acids, and then 1.5 mL of ethanol was added thereto such that only the nucleic acids were precipitated while the lipid was dissolved. Then, the supernatant was removed by centrifugation. After the precipitates were air-dried for 15 minutes or longer, water was added thereto such that the precipitates were redissolved, and the concentration thereof was measured using Nanodrop NF1000 (Thermo Fisher Scientific), thereby quantifying the total nucleic acid concentration.
The nucleic acid concentration was quantified using a Quant-iT RiboGreen RNA Assay Kit (Thermo Fisher Scientific) according to the protocol. First, a 20×TE buffer included in the above kit was diluted with water, thereby obtaining a 1×TE buffer. TE represents Tris/EDTA (ethylenediaminetetraacetic acid). In order to quantify only the nucleic acid in the outer water phase, the dispersion liquid of lipid particles retaining nucleic acids was diluted 10,000× with the 1×TE buffer.
The 10,000× diluted dispersion liquid of lipid particles (100 μL) was put in a 96-well plate, then 100 μL of a RiboGreen reagent (reagent included in the Quanti-iT Ribogreen RNA Assay Kit described above) diluted 2000× with the 1×TE buffer was added to a sample, and fluorescence (excitation wavelength: 485 nm, fluorescence wavelength: 535 nm) was measured using a plate reader Infinit EF200 (TECAN), thereby quantifying the nucleic acid concentration in the outer water phase.
By using the total nucleic acid concentration obtained through the above steps and the quantified nucleic acid concentration in the outer water phase, the nucleic acid encapsulation rate of the nucleic acid lipid particles was calculated according to the following Equation. Nucleic acid encapsulation rate (%)=(total nucleic acid concentration−nucleic acid concentration in outer water phase)/total nucleic acid concentration×100 The results are shown in Table 2.

[4] = Luc2-siRNA lipid particles using the compound, siRNA 0.1 to 100 nmol/L, concentration at which Luc expression is knocked down to 50%, read-out: IC50

SMILES | IC50 [1] [nM] | Particle size (nm) [2] [nm] | Nucleic acid encapsulation rate [3] [%] | IC50 [1, 4] [nM]
CCCCC/C=C\C/C=C\CCCCCCCCN(CCCCCCCC/C=C\C/C=C\CCCCC)C(=O)OCCN(C)C [Comparative Example 3, reference compound] | > 100 | 72.4 | 80 | 
CCCCC/C=C\C/C=C\CCCCCCCCC(CCCCCCCC/C=C\C/C=C\CCCCC)OC(=O)OCCN(C)C [Comparative Example 4, 2-(Dimethylamino)ethyl((6Z,9Z,28Z,31Z)-heptatriaconta-6,9,28,31-tetraen-19-yl)carbonate, reference compound] | > 100 | 62.8 | 77 | 
CCCCC/C=C\C/C=C\CCCCCCCCN(CCCCCCCC/C=C\C/C=C\CCCCC)C(=O)OCCN1CCN(C)CC1 [Comparative Example 5, 2-(4-Methylpiperazin-1-yl)ethyl di((9Z,12Z)-octadeca-9,12-dien-1-yl)carbamate, reference compound] |  | 75.1 | 87 | > 100
CCCCC/C=C\C/C=C\CCCCCCCCN(CCCCCCCC/C=C\C/C=C\CCCCC)C(=O)CN(C)CCN(C)C [Comparative Example 6, 2-((2-(dimethylamino)ethyl)(methyl)amino)-N,N-di((9Z,12Z)-octadeca-9,12-dien-1-yl)acetamide, reference compound] |  | 81.9 | 89 | > 100
CCCCCCCC/C=C\CCCCCCCC(=O)OCCCCCCC(CCCCCCOC(=O)CCCCCCC/C=C\CCCCCCCC)OC(=O)OCCN(CC)CCN(C)C [Example 36, 7-(((2-((2-(dimethylamino)ethyl)(ethyl)amino)ethoxy)carbonyl)oxy)tridecane-1,13-diyldioleate] | 11 |  |  | 
CCCCCC(CCCCC)C(=O)OCCCCCCC(CCCCCCOC(=O)C(CCCCC)CCCCC)OC(=O)OCCN(CC)CCN(CC)CC [Example 60, 7-(((2-((2-(Diethylamino)ethyl)(ethyl)amino)ethoxy)carbonyl)oxy)tridecane-1,13-diylbis(2-pentylheptanoate)] |  |  |  | 1
CCCCCCCCC(CCCCCC)COC(=O)CCCC(CCCCCC)OC(=O)OCCN(CC)CCN(CC)CC (stereo not drawn) [Example 82, 2-Hexyldecyl 3,6-diethyl-12-hexyl-10-oxo-9,11-dioxa-3,6-diazahexadecan-16-oate] |  | 77 | 78 | 
CCCCCCC(CCCC)COC(=O)CCCCCCCCC(CCCCCC)OC(=O)OCCN(CCO)CCN(CC)CC (stereo not drawn) [Example 85, 2-Butyloctyl 3-ethyl-12-hexyl-6-(2-hydroxyethyl)-10-oxo-9,11-dioxa-3,6-diazahenicosan-21-oate] |  | 246.6 | 86 | 
CCCCCCC(CCCC)COC(=O)CCCCCCCCC(CCCCCC)OC(=O)OCCN(CCO)CCCN(CC)CC (stereo not drawn) [Example 90, 2-Butyloctyl 3-ethyl-13-hexyl-7-(2-hydroxyethyl)-11-oxo-10,12-dioxa-3,7-diazadocosan-22-oate] |  | 169.3 | 60 | 
CCCCCCC(CCCC)COC(=O)CCCCCCC(CCCCCC)OC(=O)OCCN(CCN(CC)CC)C(C)C (stereo not drawn) [Example 92, 2-Butyloctyl 3-ethyl-12-hexyl-6-isopropyl-10-oxo-9,11-dioxa-3,6-diazanonadecan-19-oate] |  | 90.5 | 73 | 
CCCCCCC(CCCC)COC(=O)CCCCC(CCCCCC)OC(=O)OCCN(CCN(CC)CC)C(C)C (stereo not drawn) [Example 95, 2-Butyloctyl 3-ethyl-12-hexyl-6-isopropyl-10-oxo-9,11-dioxa-3,6-diazaheptadecan-17-oate] |  | 95.5 | 83 | 
CCCCCCCCC(CCCCCC)COC(=O)CCCCC(CCCCCC)OC(=O)OCCN(CCN(CC)CC)C(C)C (stereo not drawn) [Example 96, 2-Hexyldecyl 3-ethyl-12-hexyl-6-isopropyl-10-oxo-9,11-dioxa-3,6-diazaheptadecan-17-oate] |  | 72.9 | 88 | 
CCCCCCCCC(CCCCCC)COC(=O)CCCCCCCCC(CCCCCC)OC(=O)OCCN(CCO)CCN(CC)CC (stereo not drawn) [Example 97, 2-Hexyldecyl 3-ethyl-12-hexyl-6-(2-hydroxyethyl)-10-oxo-9,11-dioxa-3,6-diazahenicosan-21-oate] |  | 142 | 82 | 
CCCCCCCCC(CCCCCC)COC(=O)CCC(CCCCCC)OC(=O)OCCN(CCN(CC)CC)C(C)C (stereo not drawn) [Example 114, 2-Hexyldecyl 3-ethyl-12-hexyl-6-isopropyl-10-oxo-9,11-dioxa-3,6-diazapentadecan-15-oate] |  | 80.1 | 69 | 
CCCCCCCC/C=C\CCCCCCCCOC(=O)CCCC(CCCCCC)OC(=O)OCCN(CCN(CC)CC)C(C)C (stereo not drawn) [Example 115, (Z)-octadec-9-en-1-yl 3-ethyl-12-hexyl-6-isopropyl-10-oxo-9,11-dioxa-3,6-diazahexadecan-16-oate] |  | 88.6 | 69 | 
CCCCCCC(CCCCCCCCC(=O)OCCC(CCCCC)CCCCC)OC(=O)OCCN(CCO)CCN(CC)CC (stereo not drawn) [Example 123, 3-Pentyloctyl 3-ethyl-12-hexyl-6-(2-hydroxyethyl)-10-oxo-9,11-dioxa-3,6-diazahenicosan-21-oate] |  | 257 | 66 | 
CCCCCCCCC(CCCCCC)COC(=O)CCCCCCCCC(CCCCC)OC(=O)OCCN(CCN(CC)CC)C(C)C (stereo not drawn) [Example 127, 2-Hexyldecyl 3-ethyl-6-isopropyl-10-oxo-12-pentyl-9,11-dioxa-3,6-diazahenicosan-21-oate] |  | 80.7 | 71 | 
CCCCCCC(CCCCCCCCC(=O)OCC(CCCCC)CCCCC)OC(=O)OCCN(CCO)CCN(CC)CC (stereo not drawn) [Example 128, 2-Pentylheptyl 3-ethyl-12-hexyl-6-(2-hydroxyethyl)-10-oxo-9,11-dioxa-3,6-diazahenicosan-21-oate] |  | 255 | 62 | 
CCCCCCCCC(CCCCCC)COC(=O)CCCCCCCCC(CCCCC)OC(=O)OCCN(CCO)CCN(CC)CC (stereo not drawn) [Example 131, 2-Hexyldecyl 3-ethyl-6-(2-hydroxyethyl)-10-oxo-12-pentyl-9,11-dioxa-3,6-diazahenicosan-21-oate] |  | 291 | 41 | 
CCCCCCCCC(CCCCCC)COC(=O)CCCCCCCCC(CCCCC)OC(=O)OCCN(CCOC(=O)CCCCCCC)CCN(CC)CC (stereo not drawn) [Example 132, 2-Hexyldecyl 3-ethyl-6-(2-(octanoyloxy)ethyl)-10-oxo-12-pentyl-9,11-dioxa-3,6-diazahenicosan-21-oate] |  | 98.4 | 76 | 
